Test system: patients with chronic low back pain (LBP) and Modic changes on MRI
Assay: Double-blinded, randomized, placebo-controlled clinical trial of a single intravenous infusion of 5 mg zoledronic acid
Assay type: in vivo, human
Details: for Intensity of leg pain, mean (SD) original value / Intensity of LBP, mean (SD) original value / Intensity of LBP, mean (SD) change: 10-cm VAS; for Fingers-to-floor, between-group difference, adjusted (ANCOVA) / Fingers-to-floor, between-group difference, unadjusted / Intensity of LBP, between-group difference, adjusted analysis (ANCOVA, baseline value) / Intensity of LBP, between-group difference, unadjusted analysis / Intensity of leg pain, between-group difference, adjusted (ANCOVA) / Intensity of leg pain, between-group difference, unadjusted / Oswestry disability index, between-group difference, adjusted (ANCOVA) / Oswestry disability index, between-group difference, unadjusted / RAND-36 mental component, between-group difference (95% CI), adjusted (ANCOVA) / RAND-36 mental component, between-group difference (95% CI), unadjusted / RAND-36 physical component, between-group difference (95% CI), adjusted (ANCOVA) / RAND-36 physical component, between-group difference (95% CI), unadjusted / Sidebending to left, between-group difference, adjusted (ANCOVA) / Sidebending to left, between-group difference, unadjusted / Sidebending to right, between-group difference, adjusted (ANCOVA) / Sidebending to right, between-group difference, unadjusted / Total RAND-36, between-group difference (95% CI), adjusted (ANCOVA) / Total RAND-36, between-group difference (95% CI), unadjusted: ZA vs placebo
Experimental: A study was performed to evaluate the efficacy of a single intravenous infusion of 5 mg zoledronic acid in comparison with intravenous placebo infusion among patients with chronic low back pain (LBP) and Modic changes on MRI. This study was a double-blinded, randomized, placebo-controlled clinical trial in patients with low back pain (LBP).
Patients were excluded from the study if they had renal impairment with reduced creatinine clearance defined as an estimated glomerular filtration rate (eGFR) below 40 ml/min, hypocalcemia, known hypersensitivity to zoledronic acid or other bisphosphonates or ingredients of the infusion product, the presence of red flags, nerve root entrapment or willingness for early retirement. Premenopausal women of childbearing potential were also excluded. Blood samples were taken prior to the infusion to assess the serum concentration of calcium and creatinine. The clinical examination included medical history and clinical assessment of lumbar flexibility, tendon signs, and motor and sensory testing.
After confirmation of eligibility patients were randomized to receive a single intravenous infusion of 5 mg zoledronic acid (n=20) or 100 ml saline as placebo (n=20) over a 15-minute period. Information on use of the concomitant medication and hospital admissions were recorded. Blood samples were taken for the assessment of safety, inflammatory mediators and markers of bone turnover at baseline, at one month and at one year.
Clinical assessments were performed at 14 days before enrollment (screening visit), and at follow-up visits at one month and one year after the infusion. The primary outcome was the change in the intensity of LBP on VAS. Secondary outcomes included leg pain intensity, ODI, health-related quality of life assessed with RAND-36, patient-reported sick leaves and lumbar flexibility. These outcome measures were assessed at baseline and at each follow-up. Lumbar flexibility was evaluated using the fingers-to-floor and trunk side bending measures (in cm). The percentage of patients undergoing a 20% relative improvement, the proportion of patients reaching a VAS score of 40 mm or less using 100 mm scale in the primary outcome, and patient acceptable symptom state (PASS) were also assessed. Pain medication use was inquired about during the follow-up visits.

O=P(O)(O)C(O)(Cn1ccnc1)P(=O)(O)O [ZA, zoledronic acid]
Fingers-to-floor, mean (SD) original value (1 mo.): 17 (17) cm
Oswestry disability index, mean (SD) original value (1 mo.): 24 (10) %
RAND-36 mental component, mean (SD) original value (1 mo.): 50 (9)
RAND-36 physical component, mean (SD) original value (1 mo.): 52 (9)
Sidebending to left, mean (SD) original value (1 mo.): 16.1 (5.3) cm
Sidebending to right, mean (SD) original value (1 mo.): 15.7 (5.9) cm
Total RAND-36, mean (SD) original value (1 mo.): 51 (8)
Intensity of leg pain, mean (SD) original value (1 mo.): 2.0 (2.3)
Intensity of LBP, mean (SD) original value (1 mo. after 5 mg IV): 4.3 (2.3)
Intensity of leg pain, mean (SD) original value (12 mos.): 2.1 (2.8)
Intensity of LBP, mean (SD) original value (12 mos. after 5 mg IV): 3.8 (2.5)
Intensity of leg pain, mean (SD) original value (baseline): 3.0 (3.1)
Intensity of LBP, mean (SD) change (baseline to 1 mo.): −2.2 (2.7)
Intensity of LBP, mean (SD) change (baseline to 12 mos.): −2.8 (2.9)
Intensity of LBP, mean (SD) original value (baseline, n=20): 6.6 (1.4)
Fingers-to-floor, mean (SD) original value (12 mos.): 16 (16) cm
Oswestry disability index, mean (SD) original value (12 mos.): 25 (13) %
RAND-36 mental component, mean (SD) original value (12 mos.): 51 (9)
RAND-36 physical component, mean (SD) original value (12 mos.): 52 (8)
Sidebending to left, mean (SD) original value (12 mos.): 16.2 (6.7) cm
Sidebending to right, mean (SD) original value (12 mos.): 15.7 (5.6) cm
Total RAND-36, mean (SD) original value (12 mos.): 51 (8)
Fingers-to-floor, between-group difference, adjusted (ANCOVA) (1 mo.): 3.6 cm
Fingers-to-floor, between-group difference, unadjusted (1 mo.): 5.0 cm
Intensity of LBP, between-group difference, adjusted analysis (ANCOVA, baseline value) (1 mo.): 1.4
Intensity of LBP, between-group difference, unadjusted analysis (1 mo.): 1.3
Intensity of leg pain, between-group difference, adjusted (ANCOVA) (1 mo.): 0.8
Intensity of leg pain, between-group difference, unadjusted (1 mo.): 0.8
Oswestry disability index, between-group difference, adjusted (ANCOVA) (1 mo.): 6.0%
Oswestry disability index, between-group difference, unadjusted (1 mo.): 4.3%
RAND-36 mental component, between-group difference (95% CI), adjusted (ANCOVA) (1 mo.): 1.6 (−2 to 5)
RAND-36 mental component, between-group difference (95% CI), unadjusted (1 mo.): 2.0 (−2 to 6)
RAND-36 physical component, between-group difference (95% CI), adjusted (ANCOVA) (1 mo.): 1.3 (−3 to 6)
RAND-36 physical component, between-group difference (95% CI), unadjusted (1 mo.): 0.3 (−4 to 5)
Sidebending to left, between-group difference, adjusted (ANCOVA) (1 mo.): −1.7 cm
Sidebending to left, between-group difference, unadjusted (1 mo.): −1.5 cm
Sidebending to right, between-group difference, adjusted (ANCOVA) (1 mo.): −2.0 cm
Sidebending to right, between-group difference, unadjusted (1 mo.): −2.0 cm
Total RAND-36, between-group difference (95% CI), adjusted (ANCOVA) (1 mo.): 1.3 (−3 to 5)
Total RAND-36, between-group difference (95% CI), unadjusted (1 mo.): 1.2 (−3 to 5)
Fingers-to-floor, between-group difference, adjusted (ANCOVA) (12 mos.): 5.3 cm
Fingers-to-floor, between-group difference, unadjusted (12 mos.): 7.1 cm
Intensity of LBP, between-group difference, adjusted analysis (ANCOVA, baseline value) (12 mos.): 0.7
Intensity of LBP, between-group difference, unadjusted analysis (12 mos.): 0.6
Intensity of leg pain, between-group difference, adjusted (ANCOVA) (12 mos.): 0.5
Intensity of leg pain, between-group difference, unadjusted (12 mos.): 0.6
Oswestry disability index, between-group difference, adjusted (ANCOVA) (12 mos.): 5.1%
Oswestry disability index, between-group difference, unadjusted (12 mos.): 3.1%
RAND-36 mental component, between-group difference (95% CI), adjusted (ANCOVA) (12 mos.): 2.7 (−2 to 7)
RAND-36 mental component, between-group difference (95% CI), unadjusted (12 mos.): 3.5 (−2 to 9)
RAND-36 physical component, between-group difference (95% CI), adjusted (ANCOVA) (12 mos.): 2.1 (−3 to 7)
RAND-36 physical component, between-group difference (95% CI), unadjusted (12 mos.): 0.7 (−5 to 6)
Sidebending to left, between-group difference, adjusted (ANCOVA) (12 mos.): −1.0 cm
Sidebending to left, between-group difference, unadjusted (12 mos.): −0.7 cm
Sidebending to right, between-group difference, adjusted (ANCOVA) (12 mos.): −1.7 cm
Sidebending to right, between-group difference, unadjusted (12 mos.): −1.6 cm
Total RAND-36, between-group difference (95% CI), adjusted (ANCOVA) (12 mos.): 2.2 (−2 to 7)
Total RAND-36, between-group difference (95% CI), unadjusted (12 mos.): 2.1 (−3 to 7)
Patients using NSAIDs (self-reported) (at one year, placebo 60%): 20%
Fingers-to-floor, mean (SD) original value (baseline): 23 (19) cm
Oswestry disability index, mean (SD) original value (baseline): 30 (11) %
RAND-36 mental component, mean (SD) original value (baseline): 49 (9)
RAND-36 physical component, mean (SD) original value (baseline): 52 (8)
Sidebending to left, mean (SD) original value (baseline): 15.0 (5.4) cm
Sidebending to right, mean (SD) original value (baseline): 14.1 (4.9) cm
Total RAND-36, mean (SD) original value (baseline): 50 (8)
Fingers-to-floor, mean (SD) change (baseline to 1 mo.): −5.1 (20) cm
Intensity of leg pain, mean (SD) change (baseline to 1 mo.): −0.6 (2.4)
Oswestry disability index, mean (SD) change (baseline to 1 mo.): −5.9 (11) %
RAND-36 mental component, mean change (baseline to 1 mo.): 1.0
RAND-36 physical component, mean change (baseline to 1 mo.): 0.1
Sidebending to left, mean (SD) change (baseline to 1 mo.): 1.1 (3.0) cm
Sidebending to right, mean (SD) change (baseline to 1 mo.): 1.5 (4.7) cm
Total RAND-36, mean change (baseline to 1 mo.): 0.6
Fingers-to-floor, mean (SD) change (baseline to 12 mos.): −6.3 (23) cm
Intensity of leg pain, mean (SD) change (baseline to 12 mos.): −0.9 (3.4)
Oswestry disability index, mean (SD) change (baseline to 12 mos.): −5.0 (15) %
RAND-36 mental component, mean change (baseline to 12 mos.): 1.8
RAND-36 physical component, mean change (baseline to 12 mos.): 0.3
Sidebending to left, mean (SD) change (baseline to 12 mos.): 1.2 (5.3) cm
Sidebending to right, mean (SD) change (baseline to 12 mos.): 1.6 (4.8) cm
Total RAND-36, mean change (baseline to 12 mos.): 1.0
Proportion of patients reaching patient acceptable symptom state (PASS) (one month, placebo 20% (p=0.096)): 50%
Proportion of patients with at least 20% improvement in intensity of LBP (one month, placebo 25% (p=0.105)): 55%
Pain reduction, VAS change from baseline (patients with Baseline VAS <6): −0.1 cm
Pain reduction, VAS change from baseline (patients with Baseline VAS ≥6 and <7): −2.3 cm
Pain reduction, VAS change from baseline (patients with Baseline VAS ≥7): −3.4 cm
Mean reduction in pain from baseline (patients with baseline pain intensity <6): 0.1
Mean reduction in pain from baseline (patients with baseline pain intensity ≥7): 3.4

Reference: US20180256611A1, “BISPHOSPHONATES FOR INCREASING THE TYPE 2 CHARACTER OF A MODIC CHANGE” (ANTECIP BIOVENTURES II LLC, priority 2017, published 2018)
